Reference: patent publication US7803816B2, “MCH receptor antagonists” (Hoffmann-La Roche Inc., priority 2005, dated 2010)
Like-named read-outs stand apart in the source and are kept apart here.

Biological target: T1, recombinant human MCHR1-receptors (Homo sapiens, UniProt Q99705)
T1 construct: expressed in transfected cells
Assay: MCHR filter binding assay (competition binding)
Conditions: membranes from CHO-K1 cells expressing human MCHR1, 0.2 nM [Phe13,[125I]Tyr19]-MCH
How it was run: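 Membranes from CHO-K1 cells stably expressing human MCHR1 (2.8 μg) preincubated 15 min with competitor, then 1 h at rt with 0.2 nM [Phe13,[125I]Tyr19]-MCH in HEPES/CaCl2/BSA/phenanthroline/Triton buffer. Bound radioactivity counted after rapid filtration over PVP/BSA-treated GF/B filters.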

[1] = read-out: IC50 (nM), in vitro activity (binding assay)

T1 sequence (Q99705 whole entry): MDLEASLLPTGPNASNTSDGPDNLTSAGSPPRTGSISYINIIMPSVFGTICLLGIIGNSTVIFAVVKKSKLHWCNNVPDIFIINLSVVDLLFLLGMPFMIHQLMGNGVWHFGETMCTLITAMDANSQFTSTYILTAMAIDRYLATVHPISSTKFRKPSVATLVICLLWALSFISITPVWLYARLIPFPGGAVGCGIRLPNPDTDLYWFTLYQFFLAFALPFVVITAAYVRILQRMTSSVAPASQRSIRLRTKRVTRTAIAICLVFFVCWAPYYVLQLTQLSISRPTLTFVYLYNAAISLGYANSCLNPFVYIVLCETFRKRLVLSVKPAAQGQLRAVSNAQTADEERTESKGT

Compound | IC50 [1] | IC50 (read-out: IC50 (nM), selected in vitro MCH-R binding data)
Cc1ccc2c(c1)ncn2C1CCN(CC2Cc3cccc(Cl)c3C2)CC1 (stereo not shown) [Example 102, 1-[1-(4-Chloro-indan-2-ylmethyl)-piperidin-4-yl]-5-methyl-1H-benzoimidazole; compound with trifluoroacetic acid] | 200 to 5000 nM | –
Cc1ccc2c(c1)nc(C(C)(C)O)n2C1CCN(CC2Cc3cccc(Cl)c3C2)CC1 (stereo not shown) [Example 103, 2-{1-[1-(4-Chloro-indan-2-ylmethyl)-piperidin-4-yl]-5-methyl-1H-benzoimidazol-2-yl}-propan-2-ol; compound with trifluoroacetic acid] | 20 to 200 nM | –
CO[C@@H]1CN(CC2Cc3ccc(C(C)C)cc3C2)CC[C@H]1n1c(C)nc2cc(C)ccc21 (stereo partly drawn) [Example 104, 1-[(3R,4R)-1-(5-Isopropyl-indan-2-ylmethyl)-3-methoxy-piperidin-4-yl]-2,5-dimethyl-1H-benzoimidazole] | 200 to 5000 nM | –
Cc1ccc2c(c1)CC(CN1CCC(n3c(C(C)(C)F)nc4cc(C)ccc43)CC1)C2 (stereo not shown) [Example 105, 2-(1-Fluoro-1-methyl-ethyl)-5-methyl-1-[1-(5-methyl-indan-2-ylmethyl)-piperidin-4-yl]-1H-benzoimidazole] | 200 to 5000 nM | –
Cc1cc2ncn(C3CCN(CC4Cc5ccc(F)cc5C4)CC3)c2cc1F (stereo not shown) [Example 106, 6-Fluoro-1-[1-(5-fluoro-indan-2-ylmethyl)-piperidin-4-yl]-5-methyl-1H-benzoimidazole] | 20 to 200 nM | 194 nM
CO[C@@H]1CN(CC2Cc3ccccc3C2)CC[C@H]1n1c(C(C)(C)O)nc2cc(C)ccc21 [Example 107, 2-[1-((3R,4R)-1-Indan-2-ylmethyl-3-methoxy-piperidin-4-yl)-5-methyl-1H-benzoimidazol-2-yl]-propan-2-ol] | 20 to 200 nM | –
CO[C@@H]1CN(C[C@H]2Cc3ccc(F)cc3C2)CC[C@H]1n1c(C(C)(C)O)nc2cc(C)ccc21 [Example 108, 2-{1-[(3R,4R)-1-((S)-5-Fluoro-indan-2-ylmethyl)-3-methoxy-piperidin-4-yl]-5-methyl-1H-benzoimidazol-2-yl}-propan-2-ol] | 20 to 200 nM | –
CO[C@@H]1CN(C[C@@H]2Cc3ccc(F)cc3C2)CC[C@H]1n1c(C(C)(C)O)nc2cc(C)ccc21 [Example 109, 2-{1-[(3R,4R)-1-((R)-5-Fluoro-indan-2-ylmethyl)-3-methoxy-piperidin-4-yl]-5-methyl-1H-benzoimidazol-2-yl}-propan-2-ol] | 20 to 200 nM | –
CO[C@@H]1CN(CC2Cc3ccc(C)cc3C2)CC[C@H]1n1c(C(C)(C)O)nc2cc(F)ccc21 (stereo partly drawn) [Example 110, 2-{5-Fluoro-1-[(3R,4R)-3-methoxy-1-(5-methyl-indan-2-ylmethyl)-piperidin-4-yl]-1H-benzoimidazol-2-yl}-propan-2-ol] | 20 to 200 nM | –
CO[C@@H]1CN(C[C@H]2Cc3ccc(Br)cc3C2)CC[C@H]1n1c(C(C)(C)O)nc2cc(F)ccc21 [Example 111, 2-{1-[(3R,4R)-1-((S)-5-Bromo-indan-2-ylmethyl)-3-methoxy-piperidin-4-yl]-5-fluoro-1H-benzoimidazol-2-yl}-propan-2-ol] | 20 to 200 nM | –
CO[C@@H]1CN(C[C@H]2Cc3ccc(Cl)cc3C2)CC[C@H]1n1c(C(C)(C)O)nc2cc(C)ccc21 [Example 112, 2-{1-[(3R,4R)-1-((S)-5-Chloro-indan-2-ylmethyl)-3-methoxy-piperidin-4-yl]-5-methyl-1H-benzoimidazol-2-yl}-propan-2-ol] | 20 to 200 nM | –
CO[C@@H]1CN(C[C@@H]2Cc3ccc(Cl)cc3C2)CC[C@H]1n1c(C(C)(C)O)nc2cc(C)ccc21 [Example 113, 2-{1-[(3R,4R)-1-((R)-5-Chloro-indan-2-ylmethyl)-3-methoxy-piperidin-4-yl]-5-methyl-1H-benzoimidazol-2-yl}-propan-2-ol] | < 20 nM | –
Cc1ccc2c(c1)CC(CN1CC[C@@H](n3c(C(C)(C)O)nc4cc(C)ccc43)[C@H](O)C1)C2 (stereo partly drawn) [Example 114, (3R,4R)-4-[2-(1-Hydroxy-1-methyl-ethyl)-5-methyl-benzoimidazol-1-yl]-1-(5-methyl-indan-2-ylmethyl)-piperidin-3-ol] | 20 to 200 nM | –
CO[C@@H]1CN(C[C@@H]2Cc3ccc(Br)cc3C2)CC[C@H]1n1c(C(C)(C)O)nc2cc(C)ccc21 [Example 115, 2-{1-[(3R,4R)-1-((R)-5-Bromo-indan-2-ylmethyl)-3-methoxy-piperidin-4-yl]-5-methyl-1H-benzoimidazol-2-yl}-propan-2-ol] | 20 to 200 nM | –
CO[C@H]1CN(C[C@@H]2Cc3ccc(Br)cc3C2)CC[C@@H]1n1c(C(C)(C)O)nc2cc(C)ccc21 [Example 116, 2-{1-[(3S,4S)-1-((R)-5-Bromo-indan-2-ylmethyl)-3-methoxy-piperidin-4-yl]-5-methyl-1H-benzoimidazol-2-yl}-propan-2-ol] | 20 to 200 nM | –
CO[C@@H]1CN(CC2Cc3ccc(C)cc3C2)CC[C@H]1n1c(C(C)(C)O)nc2cc(C)ccc21 (stereo partly drawn) [Example 117, 2-{1-[(3R,4R)-3-Methoxy-1-(5-methyl-indan-2-ylmethyl)-piperidin-4-yl]-5-methyl-1H-benzoimidazol-2-yl}-propan-2-ol] | 20 to 200 nM | –
CO[C@@H]1CN(CC2Cc3ccc(F)cc3C2)CC[C@H]1n1cnc2cc(C)ccc21 (stereo partly drawn) [Example 118, 1-[(3R,4R)-1-(5-Fluoro-indan-2-ylmethyl)-3-methoxy-piperidin-4-yl]-5-methyl-1H-benzoimidazole] | 200 to 5000 nM | –
CO[C@@H]1CN(CC2Cc3ccncc3C2)CC[C@H]1n1c(C)nc2cc(C)ccc21 (stereo partly drawn) [Example 119, 1-[(3R,4R)-1-(6,7-Dihydro-5H-[2]pyrindin-6-ylmethyl)-3-methoxy-piperidin-4-yl]-2,5-dimethyl-1H-benzoimidazole] | 20 to 200 nM | –
CS(=O)(=O)c1ccc2c(c1)nc(C(F)(F)F)n2C1CCN(C[C@H]2Cc3ccc(Br)cc3C2)CC1 [Example 121, 1-[1-((S)-5-Bromo-indan-2-ylmethyl)-piperidin-4-yl]-5-methanesulfonyl-2-trifluoromethyl-1H-benzoimidazole] | 20 to 200 nM | –
CO[C@@H]1CN(C[C@H]2Cc3ccc(Br)cc3C2)CC[C@H]1n1c(C(C)(C)O)nc2cc(C)c(F)cc21 [Example 123, 2-{1-[(3R,4R)-1-((S)-5-Bromo-indan-2-ylmethyl)-3-methoxy-piperidin-4-yl]-6-fluoro-5-methyl-1H-benzoimidazol-2-yl}-propan-2-ol] | < 20 nM | –
Cc1cc2nc(C(C)(C)O)n(C3CCN(C[C@H]4Cc5ccc(Br)cc5C4)CC3)c2cc1F [Example 124, 2-{1-[1-((S)-5-Bromo-indan-2-ylmethyl)-piperidin-4-yl]-6-fluoro-5-methyl-1H-benzoimidazol-2-yl}-propan-2-ol] | < 20 nM | –
N-(2-{2-[4-(2,5-Dimethyl-benzoimidazol-1-yl)-piperidin-1-yl]-ethyl}-indan-5-yl)-isobutyramide [Example 58] | 200 to 5000 nM | –
N-{(R)-2-[(3R,4R)-4-(2,5-Dimethyl-benzoimidazol-1-yl)-3-methoxy-piperidine-1-carbonyl]-indan-5-yl}-isobutyramide [Example 57] | 200 to 5000 nM | –
{(R)-2-[4-(2-tert-Butyl-5-methyl-benzoimidazol-1-yl)-piperidin-1-ylmethyl]-indan-5-yl}-methyl-amine [Example 56] | 200 to 5000 nM | –
